Where a name gives a salt, the structure may show the parent alone. Read-outs that look alike come from different tables or passages of the source.
Experiments:
[1] = Partition coefficient octanol/buffer; assay type: physicochemical; settings: for logD: octanol/buffer, pH 9, octanol/buffer pH = 9.0
gastric mucosa = assay: Effect on gastric erosions (Adami index); assay type: in vivo; settings: for N^o GASTRIC EROSIONS / SEVERITY: Adami index
Protocol: A comparison test between betahistine hydrochloride and betahistine fumarate was carried out, evaluating the toxicity (LD₅₀) and the effect on gastric erosions, at equimolar doses.
Admnistration volume = 15 ml/kg Evaluation of the stomach conditions = 1h after administration according to Adami index.

[2] = pH of the administered treatment; assay type: physicochemical; settings: treatment as administered in the gastric erosion test
Solubility = assay type: physicochemical
[3] = Bioavailability test on rats; settings: rat, in vivo
Protocol: The AUCs, in the time 0-3 hours, for betahistine fumarate and betahistine dihydrochloride evidence no significant differences (8.2 vs 7.6 h.µg/ml, respectively).

[4] = 20 mmoles/kg, administration volume 15 ml/kg, 1h after administration
[5] = 20 mmoles/kg, administration volume 15 ml/kg, 1h after administration, dihydrochloride

## CNCCc1ccccn1 [BETAHISTINE FUMARATE, Betahistine Fumarate]
[1]; read-out: Partition coefficient P (converted)
  logD: -0.904
[1]; read-out: logP
  logD: 0.904
Gastric mucosa; [4]
  % ANIMALS WITH EROSIONS: diffused bleeding: 20%
  % ANIMALS WITH EROSIONS: serious erosions: 10%
  N^o GASTRIC EROSIONS: 0.3±0.3
  SEVERITY: 0.6±0.31
Gastric mucosa; equimolar doses, compared with the hydrochloride
  effect on gastric erosions: markedly improved
[2]
  pH: BETAHISTINE FUMARATE pH = 4.19
Solubility; acetone
  Solubility in acetone: poorly soluble
Solubility; acid aqueous solutions
  Solubility in acid aqueous solutions: soluble
Solubility; chloroform
  Solubility in chloroform: almost unsoluble
Solubility; ethanol
  Solubility in ethanol: soluble
Solubility; methanol
  Solubility in methanol: soluble
Solubility; water
  Solubility in water: soluble
[3]
  plasmatic curve peak after the administration: 15 min
[3]; rats, 0-3 hours, read-out: AUCs, in the time 0-3 hours
  AUC at 3 h: 8200 ng·h/mL

## CNCCc1ccccn1 [BETAHISTINE DIHYDROCHLORIDE, betahistine dihydrochloride, reference compound]
Gastric mucosa; [5]
  N^o GASTRIC EROSIONS: 7.92±1.26
  SEVERITY: 3.85±0.35
  % ANIMALS WITH EROSIONS: serious erosions: 92.32% serious erosions
[2]; dihydrochloride
  pH: BETAHISTINE DIHYDROCHLORIDE pH=1.6
[3]
  AUC: 7600 ng·h/mL
  bioavailability: substantially the same bioavailability

## CNCCc1ccccn1 [BETAHISTINE, [2-(2-Pyridyl)ethyl]-methylamine]
[1]; octanol/buffer pH = 9.0
  Partition coefficient P: 0.147
